Assay results: ChEMBL document CHEMBL4507294, “Data for DCP probe MSD-CYP11B2” (2021)

Columns and labels:
[1] = biological target: Microtubule-associated serine/threonine-protein kinase 1 (Homo sapiens) (UniProt Q9Y2H9); conditions: Compound concentration 1000.0 nM
[2] = biological target: Histamine H2 receptor (Homo sapiens) (UniProt P25021); conditions: Compound concentration 10.0 uM
[3] = biological target: Serine/threonine-protein kinase tousled-like 1 (Homo sapiens) (UniProt Q9UKI8); conditions: Compound concentration 1000.0 nM
[4] = biological target: Serine/threonine-protein kinase 35 (Homo sapiens) (UniProt Q8TDR2); conditions: Compound concentration 1000.0 nM
[5] = biological target: Tyrosine-protein kinase TXK (Homo sapiens) (UniProt P42681); conditions: Compound concentration 1000.0 nM
[6] = biological target: Cyclin-dependent kinase-like 3 (Homo sapiens) (UniProt Q8IVW4); conditions: Compound concentration 1000.0 nM
[7] = biological target: Serine/threonine-protein kinase OSR1 (Homo sapiens) (UniProt O95747); conditions: Compound concentration 1000.0 nM
[8] = biological target: Ephrin type-A receptor 3 (Homo sapiens) (UniProt P29320); conditions: Compound concentration 1000.0 nM
[9] = biological target: Serine/threonine-protein kinase 26 (Homo sapiens) (UniProt Q9P289); conditions: Compound concentration 1000.0 nM
[10] = biological target: Discoidin domain-containing receptor 2 (Homo sapiens) (UniProt Q16832); conditions: Compound concentration 1000.0 nM
[11] = biological target: Serine/threonine-protein kinase 32B (Homo sapiens) (UniProt Q9NY57); conditions: Compound concentration 1000.0 nM
[12] = biological target: Phosphatidylinositol 3-kinase catalytic subunit type 3 (Homo sapiens) (UniProt Q8NEB9); conditions: Compound concentration 1000.0 nM
[13] = biological target: Insulin receptor-related protein (Homo sapiens) (UniProt P14616); conditions: Compound concentration 1000.0 nM
[14] = biological target: Serine/threonine-protein kinase TAO1 (Homo sapiens) (UniProt Q7L7X3); conditions: Compound concentration 1000.0 nM
[15] = biological target: Proto-oncogene tyrosine-protein kinase Src (Homo sapiens) (UniProt P12931); conditions: Compound concentration 1000.0 nM
[16] = biological target: Uncharacterized serine/threonine-protein kinase SBK3 (Homo sapiens) (UniProt P0C264); conditions: Compound concentration 1000.0 nM
Chain of Uncharacterized serine/threonine-protein kinase SBK3 (Homo sapiens) (P0C264 whole entry): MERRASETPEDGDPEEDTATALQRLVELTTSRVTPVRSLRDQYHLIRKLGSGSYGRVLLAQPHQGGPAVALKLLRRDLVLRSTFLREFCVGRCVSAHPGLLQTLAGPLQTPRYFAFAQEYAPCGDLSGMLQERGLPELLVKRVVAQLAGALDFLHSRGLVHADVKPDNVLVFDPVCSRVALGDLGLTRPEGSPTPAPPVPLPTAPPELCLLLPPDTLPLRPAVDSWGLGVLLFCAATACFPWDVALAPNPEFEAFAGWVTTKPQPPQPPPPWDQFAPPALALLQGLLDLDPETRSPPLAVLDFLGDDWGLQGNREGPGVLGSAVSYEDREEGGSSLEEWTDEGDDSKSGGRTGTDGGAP

[17] = biological target: Ephrin type-A receptor 1 (Homo sapiens) (UniProt P21709); conditions: Compound concentration 1000.0 nM
Chain of Ephrin type-A receptor 1 (Homo sapiens) (P21709 whole entry, canonical isoform): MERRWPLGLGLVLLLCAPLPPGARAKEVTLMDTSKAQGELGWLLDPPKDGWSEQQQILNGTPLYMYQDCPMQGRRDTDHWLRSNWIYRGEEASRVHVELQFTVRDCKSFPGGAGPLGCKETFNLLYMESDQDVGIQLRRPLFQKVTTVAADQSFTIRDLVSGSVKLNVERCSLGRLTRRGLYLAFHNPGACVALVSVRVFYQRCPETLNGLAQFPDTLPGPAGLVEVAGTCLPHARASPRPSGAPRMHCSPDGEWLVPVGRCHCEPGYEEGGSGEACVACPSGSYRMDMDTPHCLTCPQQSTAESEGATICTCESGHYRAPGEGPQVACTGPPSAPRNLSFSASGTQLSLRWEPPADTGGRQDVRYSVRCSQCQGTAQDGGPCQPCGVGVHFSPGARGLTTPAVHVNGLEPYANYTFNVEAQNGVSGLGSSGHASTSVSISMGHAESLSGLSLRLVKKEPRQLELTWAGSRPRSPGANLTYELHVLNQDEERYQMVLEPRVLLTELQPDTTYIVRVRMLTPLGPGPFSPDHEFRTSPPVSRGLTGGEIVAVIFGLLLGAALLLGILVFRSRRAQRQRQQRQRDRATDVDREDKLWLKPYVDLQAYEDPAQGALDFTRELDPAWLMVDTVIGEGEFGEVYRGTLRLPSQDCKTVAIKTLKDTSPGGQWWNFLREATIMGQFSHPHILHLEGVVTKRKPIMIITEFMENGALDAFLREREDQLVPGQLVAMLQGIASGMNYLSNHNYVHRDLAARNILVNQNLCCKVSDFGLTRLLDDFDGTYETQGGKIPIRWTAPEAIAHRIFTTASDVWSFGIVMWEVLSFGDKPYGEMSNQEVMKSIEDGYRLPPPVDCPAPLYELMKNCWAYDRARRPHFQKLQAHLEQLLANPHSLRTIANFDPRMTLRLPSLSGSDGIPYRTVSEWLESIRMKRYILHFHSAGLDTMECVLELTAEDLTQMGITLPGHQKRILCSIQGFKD

[18] = biological target: Casein kinase I isoform alpha (Homo sapiens) (UniProt P48729); conditions: Compound concentration 1000.0 nM
Chain of Casein kinase I isoform alpha (Homo sapiens) (P48729 2-337 limits assumed): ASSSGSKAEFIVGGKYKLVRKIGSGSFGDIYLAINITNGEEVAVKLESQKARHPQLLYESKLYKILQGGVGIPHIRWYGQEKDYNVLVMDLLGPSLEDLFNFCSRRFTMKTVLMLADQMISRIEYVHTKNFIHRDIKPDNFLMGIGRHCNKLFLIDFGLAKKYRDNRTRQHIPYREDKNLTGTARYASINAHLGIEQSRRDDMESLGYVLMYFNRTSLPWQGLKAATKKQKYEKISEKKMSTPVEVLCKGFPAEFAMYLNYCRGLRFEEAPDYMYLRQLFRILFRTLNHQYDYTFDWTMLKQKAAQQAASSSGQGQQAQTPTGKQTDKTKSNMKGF

[19] = biological target: Receptor tyrosine-protein kinase erbB-4 (Homo sapiens) (UniProt Q15303); conditions: Compound concentration 1000.0 nM
[20] = tested on: Fibroblast growth factor receptor 3 (Homo sapiens), P22607 [G697C]; conditions: Compound concentration 1000.0 nM
[21] = biological target: Histamine H1 receptor (Homo sapiens) (UniProt P35367); conditions: Compound concentration 10.0 uM
Chain of Histamine H1 receptor (Homo sapiens) (P35367 whole entry): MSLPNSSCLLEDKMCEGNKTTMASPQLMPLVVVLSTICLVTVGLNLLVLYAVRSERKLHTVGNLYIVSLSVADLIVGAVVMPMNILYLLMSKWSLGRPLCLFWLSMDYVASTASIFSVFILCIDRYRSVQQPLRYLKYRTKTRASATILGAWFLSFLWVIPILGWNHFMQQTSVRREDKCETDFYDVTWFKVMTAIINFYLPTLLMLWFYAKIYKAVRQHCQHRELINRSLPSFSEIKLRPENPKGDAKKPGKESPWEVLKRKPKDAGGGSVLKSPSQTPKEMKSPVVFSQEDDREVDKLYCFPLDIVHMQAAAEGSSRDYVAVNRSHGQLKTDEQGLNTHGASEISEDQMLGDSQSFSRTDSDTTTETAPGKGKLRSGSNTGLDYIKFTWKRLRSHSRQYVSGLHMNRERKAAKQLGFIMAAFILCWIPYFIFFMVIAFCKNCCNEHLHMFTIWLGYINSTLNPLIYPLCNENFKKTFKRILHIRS

[22] = biological target: Megakaryocyte-associated tyrosine-protein kinase (Homo sapiens) (UniProt P42679); conditions: Compound concentration 1000.0 nM
[23] = biological target: Phosphatidylinositol 5-phosphate 4-kinase type-2 gamma (Homo sapiens) (UniProt Q8TBX8); conditions: Compound concentration 1000.0 nM
[24] = biological target: MAP/microtubule affinity-regulating kinase 3 (Homo sapiens) (UniProt P27448); conditions: Compound concentration 1000.0 nM
[25] = biological target: Vascular endothelial growth factor receptor 1 (Homo sapiens) (UniProt P17948); conditions: Compound concentration 1000.0 nM
[26] = tested on: Mast/stem cell growth factor receptor Kit (Homo sapiens), P10721 [L576P]; conditions: Compound concentration 1000.0 nM
[27] = biological target: Ribosomal protein S6 kinase alpha-5 (Homo sapiens) (UniProt O75582); conditions: Compound concentration 1000.0 nM
[28] = tested on: Proto-oncogene tyrosine-protein kinase receptor Ret (Homo sapiens), P07949 [M918T]; conditions: Compound concentration 1000.0 nM
[29] = biological target: Ribosomal protein S6 kinase alpha-1 (Homo sapiens) (UniProt Q15418); conditions: Compound concentration 1000.0 nM
Chain of Ribosomal protein S6 kinase alpha-1 (Homo sapiens) (Q15418 whole entry): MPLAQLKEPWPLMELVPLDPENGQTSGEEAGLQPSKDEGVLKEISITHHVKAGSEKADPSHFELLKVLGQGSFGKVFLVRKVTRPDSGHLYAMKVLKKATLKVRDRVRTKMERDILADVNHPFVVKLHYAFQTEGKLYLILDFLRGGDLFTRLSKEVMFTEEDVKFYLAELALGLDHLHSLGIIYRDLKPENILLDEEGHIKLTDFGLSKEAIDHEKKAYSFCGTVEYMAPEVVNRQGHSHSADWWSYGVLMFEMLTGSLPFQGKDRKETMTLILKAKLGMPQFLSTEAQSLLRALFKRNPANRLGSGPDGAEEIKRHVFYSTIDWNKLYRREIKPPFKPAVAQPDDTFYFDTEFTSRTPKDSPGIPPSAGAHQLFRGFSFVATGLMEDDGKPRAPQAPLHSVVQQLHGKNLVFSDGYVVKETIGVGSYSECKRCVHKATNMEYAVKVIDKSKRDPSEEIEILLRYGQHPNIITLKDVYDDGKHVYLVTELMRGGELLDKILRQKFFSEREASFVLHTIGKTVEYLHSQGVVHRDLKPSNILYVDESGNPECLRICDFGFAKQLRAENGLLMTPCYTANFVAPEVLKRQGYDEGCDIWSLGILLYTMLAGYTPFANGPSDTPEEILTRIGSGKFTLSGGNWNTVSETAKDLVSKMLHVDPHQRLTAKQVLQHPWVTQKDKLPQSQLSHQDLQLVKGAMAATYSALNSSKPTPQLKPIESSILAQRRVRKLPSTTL

[30] = biological target: Cytoplasmic tyrosine-protein kinase BMX (Homo sapiens) (UniProt P51813); conditions: Compound concentration 1000.0 nM
[31] = biological target: Casein kinase I isoform gamma-3 (Homo sapiens) (UniProt Q9Y6M4); conditions: Compound concentration 1000.0 nM
[32] = biological target: Serine/threonine-protein kinase ULK1 (Homo sapiens) (UniProt O75385); conditions: Compound concentration 1000.0 nM
[33] = tested on: Phosphatidylinositol 4,5-bisphosphate 3-kinase catalytic subunit alpha isoform (Homo sapiens), P42336 [E542K]; conditions: Compound concentration 1000.0 nM
[34] = biological target: 5-hydroxytryptamine receptor 6 (Homo sapiens, UniProt P50406); conditions: Compound concentration 10.0 uM
[35] = tested on: Phosphatidylinositol 4,5-bisphosphate 3-kinase catalytic subunit alpha isoform (Homo sapiens), P42336 [I800L]; conditions: Compound concentration 1000.0 nM
Chain of Phosphatidylinositol 4,5-bisphosphate 3-kinase catalytic subunit alpha isoform (Homo sapiens), P42336 [I800L] (P42336 whole entry I800L, canonical isoform): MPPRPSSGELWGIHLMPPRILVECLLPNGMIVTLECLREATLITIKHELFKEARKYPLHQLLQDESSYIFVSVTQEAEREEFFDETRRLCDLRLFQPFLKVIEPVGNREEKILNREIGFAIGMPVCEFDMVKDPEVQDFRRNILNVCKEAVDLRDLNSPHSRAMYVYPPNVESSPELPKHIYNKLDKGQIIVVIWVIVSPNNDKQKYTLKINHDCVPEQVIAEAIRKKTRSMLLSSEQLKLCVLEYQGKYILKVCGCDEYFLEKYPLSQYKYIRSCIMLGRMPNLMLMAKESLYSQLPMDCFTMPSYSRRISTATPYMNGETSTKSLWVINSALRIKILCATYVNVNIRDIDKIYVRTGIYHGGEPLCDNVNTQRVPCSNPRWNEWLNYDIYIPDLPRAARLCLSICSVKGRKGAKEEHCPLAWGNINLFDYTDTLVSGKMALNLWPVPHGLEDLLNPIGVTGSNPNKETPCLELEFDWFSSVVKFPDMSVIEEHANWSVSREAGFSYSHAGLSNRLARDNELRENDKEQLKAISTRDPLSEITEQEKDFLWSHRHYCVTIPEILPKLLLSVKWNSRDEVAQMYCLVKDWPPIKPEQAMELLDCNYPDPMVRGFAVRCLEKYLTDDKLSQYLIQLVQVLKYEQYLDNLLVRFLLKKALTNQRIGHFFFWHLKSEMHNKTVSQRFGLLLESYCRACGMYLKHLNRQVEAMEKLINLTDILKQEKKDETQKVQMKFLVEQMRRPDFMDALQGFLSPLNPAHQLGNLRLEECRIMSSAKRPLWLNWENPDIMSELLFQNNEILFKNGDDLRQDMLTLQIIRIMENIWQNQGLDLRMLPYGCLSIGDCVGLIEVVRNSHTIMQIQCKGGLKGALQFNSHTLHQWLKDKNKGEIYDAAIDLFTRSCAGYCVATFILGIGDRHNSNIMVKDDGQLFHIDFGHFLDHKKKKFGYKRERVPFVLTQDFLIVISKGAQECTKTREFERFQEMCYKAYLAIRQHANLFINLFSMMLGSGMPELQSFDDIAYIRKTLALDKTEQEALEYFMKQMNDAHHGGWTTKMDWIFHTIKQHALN

[36] = biological target: Proto-oncogene tyrosine-protein kinase receptor Ret (Homo sapiens) (UniProt P07949); conditions: Compound concentration 1000.0 nM
[37] = tested on: Receptor-type tyrosine-protein kinase FLT3 (Homo sapiens), P36888 [UNDEFINED MUTATION]; conditions: Compound concentration 1000.0 nM
[38] = biological target: Transient receptor potential cation channel subfamily M member 6 (Homo sapiens) (UniProt Q9BX84); conditions: Compound concentration 1000.0 nM
[39] = biological target: NUAK family SNF1-like kinase 2 (Homo sapiens) (UniProt Q9H093); conditions: Compound concentration 1000.0 nM
[40] = biological target: Tyrosine-protein kinase Tec (Homo sapiens) (UniProt P42680); conditions: Compound concentration 1000.0 nM
[41] = biological target: Serine/threonine-protein kinase Nek5 (Homo sapiens) (UniProt Q6P3R8); conditions: Compound concentration 1000.0 nM
Chain of Serine/threonine-protein kinase Nek5 (Homo sapiens) (Q6P3R8 whole entry): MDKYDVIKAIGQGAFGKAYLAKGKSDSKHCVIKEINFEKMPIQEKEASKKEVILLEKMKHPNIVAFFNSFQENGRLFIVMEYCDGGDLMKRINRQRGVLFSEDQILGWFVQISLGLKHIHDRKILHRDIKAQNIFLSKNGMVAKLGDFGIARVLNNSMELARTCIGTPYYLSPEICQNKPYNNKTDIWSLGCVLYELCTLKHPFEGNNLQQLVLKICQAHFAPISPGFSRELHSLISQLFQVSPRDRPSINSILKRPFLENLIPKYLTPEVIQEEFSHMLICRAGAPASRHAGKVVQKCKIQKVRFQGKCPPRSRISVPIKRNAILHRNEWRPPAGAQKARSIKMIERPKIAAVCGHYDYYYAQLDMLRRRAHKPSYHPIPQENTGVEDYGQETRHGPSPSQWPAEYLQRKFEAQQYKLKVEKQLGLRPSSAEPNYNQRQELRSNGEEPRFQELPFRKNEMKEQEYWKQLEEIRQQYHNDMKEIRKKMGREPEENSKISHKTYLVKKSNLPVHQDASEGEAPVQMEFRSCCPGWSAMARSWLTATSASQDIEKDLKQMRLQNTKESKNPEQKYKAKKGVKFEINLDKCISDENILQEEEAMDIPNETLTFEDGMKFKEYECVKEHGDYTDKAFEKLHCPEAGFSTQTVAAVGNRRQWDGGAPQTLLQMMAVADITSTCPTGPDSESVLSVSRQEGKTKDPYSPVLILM

[42] = biological target: cAMP-dependent protein kinase catalytic subunit beta (Homo sapiens) (UniProt P22694); conditions: Compound concentration 1000.0 nM
[43] = biological target: Wee1-like protein kinase 2 (Homo sapiens) (UniProt P0C1S8); conditions: Compound concentration 1000.0 nM
[44] = biological target: Protein kinase C eta type (Homo sapiens) (UniProt P24723); conditions: Compound concentration 1000.0 nM
[45] = biological target: Serine/threonine-protein kinase SBK1 (Homo sapiens) (UniProt Q52WX2); conditions: Compound concentration 1000.0 nM

Chain of Histamine H2 receptor (Homo sapiens) (P25021 whole entry): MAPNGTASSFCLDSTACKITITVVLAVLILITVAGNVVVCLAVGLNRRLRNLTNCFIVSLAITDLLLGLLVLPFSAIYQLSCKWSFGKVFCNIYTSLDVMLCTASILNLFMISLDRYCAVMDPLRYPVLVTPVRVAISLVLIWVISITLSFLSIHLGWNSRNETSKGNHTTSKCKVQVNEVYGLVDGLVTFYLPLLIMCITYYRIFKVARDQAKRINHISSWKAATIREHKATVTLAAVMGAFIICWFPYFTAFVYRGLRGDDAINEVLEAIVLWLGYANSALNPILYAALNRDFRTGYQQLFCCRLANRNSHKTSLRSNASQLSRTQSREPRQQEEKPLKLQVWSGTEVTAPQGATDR

FC(F)(F)c1ccc2c(c1)nc(-c1cccnc1)n2C1CC1 [MSD-CYP11B2-Negative-control]
residual activity [1]: 100%
inhibition [2]: 6.72%
residual activity [3]: 100%
residual activity [4]: 100%
residual activity [5]: 100%
residual activity [6]: 96%
residual activity [7]: 100%
residual activity [8]: 100%
residual activity [9]: 100%
residual activity [10]: 100%
residual activity [11]: 100%
residual activity [12]: 100%
residual activity [13]: 100%
residual activity [14]: 100%
residual activity [15]: 100%
residual activity [16]: 76%
residual activity [17]: 100%
residual activity [18]: 90%
residual activity [19]: 100%
residual activity [20]: 100%
inhibition [21]: 9.49%
residual activity [22]: 100%
residual activity [23]: 100%
residual activity [24]: 100%
residual activity [25]: 100%
residual activity [26]: 100%
residual activity [27]: 100%
residual activity [28]: 91%
residual activity [29]: 100%
residual activity [30]: 100%
residual activity [31]: 100%
residual activity [32]: 100%
residual activity [33]: 100%
inhibition [34]: 60.4%
residual activity [35]: 99%
residual activity [36]: 99%
residual activity [37]: 100%
residual activity [38]: 100%
residual activity [39]: 100%
residual activity [40]: 100%
residual activity [41]: 100%
residual activity [42]: 100%
residual activity [43]: 100%
residual activity [44]: 100%
residual activity [45]: 100%

CC(C)(O)c1cncc(-c2nc3ccc(F)cc3n2C2CC2)c1 [MSD-CYP11B2]
residual activity [1]: 100%
inhibition [2]: 1.75%
residual activity [3]: 100%
residual activity [4]: 100%
residual activity [5]: 92%
residual activity [6]: 84%
residual activity [7]: 100%
residual activity [8]: 100%
residual activity [9]: 100%
residual activity [10]: 100%
residual activity [11]: 97%
residual activity [12]: 100%
residual activity [13]: 100%
residual activity [14]: 100%
residual activity [15]: 100%
residual activity [16]: 77%
residual activity [17]: 100%
residual activity [18]: 84%
residual activity [19]: 100%
residual activity [20]: 100%
inhibition [21]: 9.54%
residual activity [22]: 100%
residual activity [23]: 100%
residual activity [24]: 100%
residual activity [25]: 100%
residual activity [26]: 100%
residual activity [27]: 100%
residual activity [28]: 100%
residual activity [29]: 100%
residual activity [30]: 100%
residual activity [31]: 100%
residual activity [32]: 100%
residual activity [33]: 84%
inhibition [34]: 15.6%
residual activity [35]: 90%
residual activity [36]: 100%
residual activity [37]: 100%
residual activity [38]: 100%
residual activity [39]: 100%
residual activity [40]: 100%
residual activity [41]: 100%
residual activity [42]: 77%
residual activity [43]: 100%
residual activity [44]: 98%
residual activity [45]: 100%
